The numbers were not newly measured in US12419901B2, “Prodrugs of deoxynucleosides for treatment of diseases caused by unbalanced nucleotide pools” (UCB BIOSCIENCES, INC., priority 2018, dated 2025), which cites them from elsewhere.

For the data set, the system named is dGK deficient patient derived fibroblasts. The conditions noted are these: 50 μM in cell culture medium, quiescent dGK-deficient fibroblasts.

For `Nc1nc2c(ncn2[C@H]2C[C@H](O)[C@@H](CO)O2)c(=O)[nH]1` [dGuo, deoxyguanosine], the “mtDNA depletion (previously demonstrated)” value was “sufficient to prevent this depletion”.
